Source: ChEMBL document CHEMBL5131541, “Structural Feature Analyzation Strategies toward Discovery of Orally Bioavailable PROTACs of Bruton's Tyrosine Kinase for the Treatment of Lymphoma” (J Med Chem, 2022)
Active and inactive are the calls of the source. The calls are words filed in the database; no cut-off is given here.

Columns and labels:
[1] = biological target: T1, Tyrosine-protein kinase BTK (Homo sapiens, UniProt Q06187); experiment: Induction of BTK degradation in human MINO cells incubated for 24 hrs by Western blot based densitometry analysis; assay type: cell-based
[2] = biological target: Proto-oncogene tyrosine-protein kinase Src (Homo sapiens) (UniProt P12931); experiment: Induction of c-SRC tyrosine kinase degradation in human MINO cells at 100 nM measured after 8 hrs by proteomic analysis; assay type: cell-based
[3] = Volume of distribution at steady state in ICR mouse at 2 mg/kg, iv measured upto 48 hrs by LC/MS analysis; assay type: ADME, organism-based; conditions: in vivo, read-out: Vdss
HEK293 [4] = experiment: Induction of BTK T316 mutant degradation in human HEK293 cells incubated for 24 hrs by Western blot analysis; assay type: cell-based; conditions: dose 1-1000 nM, DDE = dose-dependent effect
[5] = Tmax in ICR mouse at 100 mg/kg, po measured upto 48 hrs by LC/MS analysis; assay type: ADME, organism-based; conditions: in vivo
[6] = Oral bioavailability in ICR mouse at 100 mg/kg measured upto 48 hrs by LC/MS analysis; assay type: ADME, organism-based; conditions: in vivo
OCI-Ly10 [7] = experiment: cells; conditions: Homo sapiens
JeKo-1 [8] = experiment: cells; conditions: Homo sapiens
[9] = biological target: Tyrosine-protein kinase BTK (Mus musculus) (UniProt P35991); experiment: In vivo induction of BTK degradation in ICR mouse monocytes assessed as protein remaining at 100 mg/kg, po after 24 hrs by Western blot analysis relative to control; assay type: functional, organism-based; conditions: Monocyte
[10] = Cmax in ICR mouse at 100 mg/kg, po measured upto 48 hrs by LC/MS analysis; assay type: ADME, organism-based; set-up: dose 100 mg/kg, time < 48 hrs, route po; conditions: in vivo
[11] = Toxicity in SCID mouse xenografted with OCILY10 cells assessed as effect on body weight at 10 to 30 mg/kg, po bid measured after 17 days; assay type: organism-based; conditions: in vivo, 408 h, dose 10-30 mg/kg, time 17 day
[12] = biological target: T1, Tyrosine-protein kinase BTK; experiment: Induction of BTK degradation in human MINO cells at 0.1 to 1000 nM incubated for 8 hrs by Western blot analysis relative to control; assay type: cell-based; conditions: dose 0.1-1000 nM
TMD8 = experiment: cells; conditions: Homo sapiens
[13] = MRT in ICR mouse at 2 mg/kg, iv measured upto 48 hrs by LC/MS analysis; assay type: ADME, organism-based; conditions: in vivo
[14] = AUC (0 to t) in Sprague-Dawley rat at 5 to 10 mg/kg, po administered as cassette dose measured upto 24 hrs by LC-MS analysis; assay type: ADME, organism-based; set-up: time < 24 hrs, route po; conditions: in vivo, dose 5-10 mg/kg
[15] = AUC (0 to t) in ICR mouse at 100 mg/kg, po measured upto 48 hrs by LC/MS analysis; assay type: ADME, organism-based; set-up: time < 48 hrs, dose 100 mg/kg, route po; conditions: in vivo
[16] = biological target: T1, Tyrosine-protein kinase BTK; experiment: Induction of BTK degradation in human MINO cells assessed as reduction in PLCgamma-2 phosphorylation incubated for 24 hrs by Western blot analysis; assay type: cell-based; conditions: dose 1-200 nM, DDE = dose-dependent effect
[17] = biological target: T1, Tyrosine-protein kinase BTK; experiment: Induction of BTK degradation in human MINO cells at 100 nM measured after 8 hrs by proteomic analysis; assay type: cell-based
JeKo-1 [18] = experiment: cells; conditions: Homo sapiens; remark: listed apart in the source
[19] = Half life in Sprague-Dawley rat at 5 to 10 mg/kg, po administered as cassette dose measured upto 24 hrs by LC-MS analysis; assay type: ADME, organism-based; conditions: in vivo, dose 5-10 mg/kg
[20] = AUC (0 to infinity) in ICR mouse at 100 mg/kg, po measured upto 48 hrs by LC/MS analysis; assay type: ADME, organism-based; set-up: time < 48 hrs, dose 100 mg/kg, route po; conditions: in vivo
[21] = biological target: Tyrosine-protein kinase BTK (Mus musculus) (UniProt P35991); experiment: In vivo induction of BTK degradation in ICR mouse monocytes assessed as protein remaining at 100 mg/kg, po after 6 hrs by Western blot analysis relative to control; assay type: functional, organism-based
[22] = Half life in ICR mouse at 100 mg/kg, po measured upto 48 hrs by LC/MS analysis; assay type: ADME, organism-based; conditions: in vivo
OCI-Ly10 [23] = experiment: Antitumor activity against human OCILY10 cells xenografted in SCID mouse assessed as tumor growth inhibition at 30 mg/kg, po bid measured after 17 days relative to control; assay type: functional; set-up: scale not given: the % may be the effect or the level left; conditions: time 17 day
[24] = biological target: T1, Tyrosine-protein kinase BTK; experiment: Inhibition of BTK (unknown origin)
[25] = Clearance in ICR mouse at 2 mg/kg, iv measured upto 48 hrs by LC/MS analysis; assay type: ADME, organism-based; conditions: in vivo
[26] = Induction of leukocyte c-SRC kinase degradation in human MINO cells at 100 nM measured after 8 hrs by proteomic analysis
[27] = tested on: Tyrosine-protein kinase BTK (Homo sapiens), Q06187 [C481S]; experiment: Inhibition of BTK C481S mutant (unknown origin)
[28] = biological target: T1, Tyrosine-protein kinase BTK; experiment: Induction of BTK degradation in human MINO cells at 0.1 to 1000 nM incubated for 2 hrs by Western blot analysis; assay type: cell-based; conditions: dose 0.1-1000 nM
[29] = biological target: T1, Tyrosine-protein kinase BTK; experiment: Induction of BTK degradation in human MINO cells incubated for 24 hrs by Western blot; assay type: cell-based; conditions: dose 1-1000 nM, DDE = dose-dependent effect
OCI-Ly10 [30] = experiment: Antitumor activity against human OCILY10 cells xenografted in SCID mouse assessed as tumor growth inhibition at 10 mg/kg, po bid measured after 17 days relative to control; assay type: functional; set-up: scale not given: the % may be the effect or the level left; conditions: time 17 day
[31] = biological target: T1, Tyrosine-protein kinase BTK; experiment: Induction of BTK degradation in human MINO cells assessed as maximum degradation incubated for 24 hrs by Western blot based densitometry analysis relative to control; assay type: cell-based
[32] = Tmax in Sprague-Dawley rat at 5 to 10 mg/kg, po administered as cassette dose measured upto 24 hrs by LC-MS analysis; assay type: ADME, organism-based; conditions: in vivo, dose 5-10 mg/kg
[33] = Cmax in Sprague-Dawley rat at 5 to 10 mg/kg, po administered as cassette dose measured upto 24 hrs by LC-MS analysis; assay type: ADME, organism-based; set-up: time < 24 hrs, route po; conditions: in vivo, dose 5-10 mg/kg
HEK293 [34] = experiment: Induction of BTK C481 mutant degradation in human HEK293 cells incubated for 24 hrs by Western blot analysis; assay type: cell-based; conditions: dose 1-1000 nM, DDE = dose-dependent effect
[35] = Dose normalized AUC (0 to t) in Sprague-Dawley rat at 5 to 10 mg/kg, po administered as cassette dose measured upto 24 hrs by LC-MS analysis; assay type: ADME, organism-based; conditions: in vivo, dose 5-10 mg/kg
[36] = biological target: T1, Tyrosine-protein kinase BTK; experiment: Induction of BTK degradation in human MINO cells assessed as reduction in NFkappaB phosphorylation incubated for 24 hrs by Western blot analysis; assay type: cell-based; conditions: dose 1-200 nM, DDE = dose-dependent effect

T1 sequence (Q06187 whole entry): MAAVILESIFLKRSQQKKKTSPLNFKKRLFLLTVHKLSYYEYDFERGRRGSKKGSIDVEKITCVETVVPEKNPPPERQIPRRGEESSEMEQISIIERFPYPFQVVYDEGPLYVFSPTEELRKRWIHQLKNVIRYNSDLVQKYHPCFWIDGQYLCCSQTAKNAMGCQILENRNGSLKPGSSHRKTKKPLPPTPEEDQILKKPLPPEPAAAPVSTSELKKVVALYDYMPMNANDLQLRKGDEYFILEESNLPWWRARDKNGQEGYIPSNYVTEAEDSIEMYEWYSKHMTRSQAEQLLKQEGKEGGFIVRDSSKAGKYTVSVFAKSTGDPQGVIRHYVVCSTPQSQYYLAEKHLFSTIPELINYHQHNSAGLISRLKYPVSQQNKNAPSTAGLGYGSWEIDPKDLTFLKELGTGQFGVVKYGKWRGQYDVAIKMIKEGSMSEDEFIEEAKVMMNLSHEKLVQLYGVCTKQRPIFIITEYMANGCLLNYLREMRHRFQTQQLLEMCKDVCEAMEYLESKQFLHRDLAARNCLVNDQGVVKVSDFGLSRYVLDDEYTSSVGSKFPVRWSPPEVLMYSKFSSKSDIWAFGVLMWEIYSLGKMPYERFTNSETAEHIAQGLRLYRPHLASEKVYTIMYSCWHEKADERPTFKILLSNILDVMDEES
Chain of Tyrosine-protein kinase BTK (Mus musculus) (P35991 whole entry): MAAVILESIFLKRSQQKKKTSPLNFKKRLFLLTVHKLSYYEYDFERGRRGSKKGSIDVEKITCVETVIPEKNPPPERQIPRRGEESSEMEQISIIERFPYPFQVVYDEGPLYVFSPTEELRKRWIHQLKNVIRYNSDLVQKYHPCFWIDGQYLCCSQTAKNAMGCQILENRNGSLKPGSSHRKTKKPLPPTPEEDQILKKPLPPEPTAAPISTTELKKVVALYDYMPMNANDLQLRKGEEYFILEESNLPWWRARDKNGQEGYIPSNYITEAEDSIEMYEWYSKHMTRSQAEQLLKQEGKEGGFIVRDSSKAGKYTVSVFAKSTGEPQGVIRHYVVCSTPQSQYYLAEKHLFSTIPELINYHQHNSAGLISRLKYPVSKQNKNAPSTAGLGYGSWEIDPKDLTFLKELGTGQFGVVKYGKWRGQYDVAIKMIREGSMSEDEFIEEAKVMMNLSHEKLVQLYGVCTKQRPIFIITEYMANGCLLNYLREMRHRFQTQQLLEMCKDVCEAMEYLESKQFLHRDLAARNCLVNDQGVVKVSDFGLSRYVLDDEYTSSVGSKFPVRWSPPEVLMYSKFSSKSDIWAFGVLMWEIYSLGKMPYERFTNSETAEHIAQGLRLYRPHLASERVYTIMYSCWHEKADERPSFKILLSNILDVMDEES
Chain of Tyrosine-protein kinase BTK (Homo sapiens), Q06187 [C481S] (Q06187 whole entry C481S): as the sequence (Q06187 whole entry) above, with C481S counted along it
Chain of Proto-oncogene tyrosine-protein kinase Src (Homo sapiens) (P12931 2-536 limits assumed): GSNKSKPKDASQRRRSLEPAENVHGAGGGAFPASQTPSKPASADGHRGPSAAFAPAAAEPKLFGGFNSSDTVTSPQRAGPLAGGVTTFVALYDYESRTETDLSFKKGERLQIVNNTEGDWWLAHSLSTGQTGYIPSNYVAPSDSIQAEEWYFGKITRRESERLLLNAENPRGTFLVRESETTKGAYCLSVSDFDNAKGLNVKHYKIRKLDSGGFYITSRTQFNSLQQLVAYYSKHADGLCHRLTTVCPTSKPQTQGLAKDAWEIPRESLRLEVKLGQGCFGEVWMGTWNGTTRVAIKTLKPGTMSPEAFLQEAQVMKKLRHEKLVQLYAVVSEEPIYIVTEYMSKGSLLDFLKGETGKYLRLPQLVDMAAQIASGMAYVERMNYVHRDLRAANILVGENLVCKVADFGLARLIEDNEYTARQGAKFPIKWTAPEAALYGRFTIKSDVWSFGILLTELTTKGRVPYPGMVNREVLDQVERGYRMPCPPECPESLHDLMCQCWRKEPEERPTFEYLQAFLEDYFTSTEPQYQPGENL

With `Nc1ncnc2c1c(-c1ccc(Oc3ccccc3)cc1)nn2C1CCN(C2CCN(CC#Cc3ccc4c(c3)CN(C3CCC(=O)NC3=O)C4=O)CC2)CC1` (configuration not stated) the DC50 [1] was 5.8 nM, the Activity [2] was “Active” and the Vd [3] was 3.1 L/kg. For the same compound, the Activity (HEK293 [4]) was “Dde”, the Tmax [5] was 8.3 h and the bioavailability [6] was 12%. It also gave an IC50 (OCI-Ly10 [7]) of 5.9 nM, an IC50 (JeKo-1 [8]) of 708 nM and an Activity [9] of 24%. The Cmax [10] was 3090 ng/mL, the Activity [11] was “Non-Toxic” and the Activity [12] was 91%. The IC50 (TMD8) was 4.7 nM, the MRT [13] was 4.5 h and the AUC(0-t) at 24 h [14] was 83 ng·h/mL. The AUC(0-t) at 48 h [15] was 16900 ng·h/mL, the Activity [16] was “Dde” and the Activity [17] was “Active”. It also gave an IC50 (JeKo-1 [18]) of 105 nM, a half-life [19] of 12.7 h and an AUC(0-inf) [20] of 17100 ng·h/mL. The Activity [21] was “Active”, the half-life [22] was 1 h and the Activity (OCI-Ly10 [23]) was 96.9%. The IC50 [24] was 9 nM, the clearance [25] was 11.8 mL/min/kg and the Activity [26] was “Active”. For the same compound, the inhibition [27] was “Active”, the Activity [28] was “Active” and the Activity [29] was “Dde”. It also gave an Activity (OCI-Ly10 [30]) of 50.9%, an Emax [31] of 96% and a Tmax [32] of 0.7 h. For the same compound, the Cmax [33] was 16 ng/mL, the Activity (HEK293 [34]) was “Dde” and the AUCt/dose [35] was 8 ng·h/mL/mg. The Activity [36] was “Dde”.
